One data set addresses T1, aldose reductase (Rattus norvegicus, UniProt P07943).
T1 construct: The aldose reductase used is obtained from the lenses of male Wistar rats; from tissue; host or cells: lenses of male Wistar rats
Kind of data set: In vitro study: inhibition of aldose reductase. Format: biochemical, male Wistar rats (lenses). The settings on record: enzyme from rat lenses; NADPH, L-glyceraldehyde; spectrophotometry at 340 nm. As to the method:
1) In vitro study: inhibition of aldose reductase
The aldose reductase used is obtained from the lenses of male Wistar rats according to a modification of the method by S. Hayman et al. (Journal of Biological Chemistry 240, p. 877, 1965). The enzymatic extract is diluted in a phosphate buffer in the presence of NADPH and various concentrations of the test products. The reaction is triggered with L-glyceraldehyde and the rate of reaction is measured by monitoring the disappearance of the NADPH by spectrophotometry at 340 nm. The rate of reaction is calculated for each concentration of products, and the concentration required for a 50% reduction in the rate of reaction (IC50) is then evaluated by linear interpolation.

In data set [1] the test system is level of sorbitol in the sciatic nerves. Kind of data set: In vivo study: reduction of the accumulation of sorbitol. The settings on record: Rattus norvegicus, po; 5 mg/kg/day p.o.; streptozotocin-diabetic rats; sciatic nerve sorbitol, relative to diabetic and non-diabetic animals; read-out: Protection against the increase in sorbitol (%) (5 mg/kg/day p.o.). Also noted: species or system male Wistar rats. On the procedure: 2) In vivo study: reduction of the accumulation of sorbitol
Male Wistar rats weighing from 200 to 250 g are made diabetic by intravenous injection of streptozotocin (60 mg/kg). They then receive an oral treatment of the test products, in the form of a suspension, 4 hours, 30 hours and 52 hours after the injection of streptozotocin. 18 hours after the final oral treatment, the rats are sacrificed and decapitated and their sciatic nerves are then removed. After extraction, the level of sorbitol in the nerves is measured, according to the enzymatic method described by H. J. Bergmeyer (Methods of enzymatic analysis, H. U. Bergmeyer ed., Academic Press New York 3, p. 1323, 1974). The percentage of protection is calculated for each product relative to the batch of diabetic animals, taking into account the level of sorbitol in the sciatic nerves of non-diabetic rats.

Experimental findings from patent US20030203966A1, “Nitromethylthiobenzene derivatives as aldose reductase inhihibitors” (priority 1996, published 2003) are described below.

Structures can show the parent of a compound that is named as a salt.

As usually defined, the IC50 is the midpoint of a concentration-inhibition curve. A higher IC50 goes with a need for much substance. The term melting point denotes the temperature, or range, at which the solid turns liquid.

`Cc1cc(NS(=O)(=O)c2ccc(F)c(F)c2)cc(C)c1S(=O)(=O)C[N+](=O)[O-]` [Example 10, 3,4-Difluoro-N-[3,5-dimethyl-4-[(nitromethyl)sulphonyl]phenyl]benzenesulphonamide] registered a melting point of 158 to 160 °C. The same molecule showed an IC50 at aldose reductase of 7 nM. For the same molecule, the inhibition in vivo at 5 mg/kg in data set [1] is 66%. For `Cc1cc(NS(=O)(=O)c2ccccc2)cc(C)c1S(=O)(=O)C[N+](=O)[O-]` [Example 1], in that order: 129 to 131 °C, 8 nM and 65%. Taken in the same sequence, the figures for `Cc1cc(NS(=O)(=O)c2cccc(F)c2)cc(C)c1S(=O)(=O)C[N+](=O)[O-]` [Example 25, N-[3,5-Dimethyl-4-[(nitromethyl)sulphonyl]phenyl]-3-fluorobenzenesulphonamide] were 135 to 137 °C, 7 nM and 85%. In the case of `Cc1cc(NS(=O)(=O)c2ccccc2F)cc(C)c1S(=O)(=O)C[N+](=O)[O-]` [Example 34, N-[3,5-Dimethyl-4-[(nitromethyl)sulphonyl]phenyl]-2-fluorobenzenesulphonamide], the melting point fell in the range of 175 to 177 °C. The molecule also showed an IC50 against aldose reductase of 9 nM. The inhibition in vivo at 5 mg/kg in data set [1] was determined as 69%. For `Cc1cc(NS(=O)(=O)c2ccc(F)cc2)cc(C)c1S(=O)(=O)C[N+](=O)[O-]` [Example 24, N-[3,5-Dimethyl-4-[(nitromethyl)sulphonyl]phenyl]-4-fluorobenzenesulphonamide], in that order: 152 to 154 °C, 8 nM and 80%. Regarding `Cc1cc(NS(=O)(=O)c2ccccc2C(F)(F)F)cc(C)c1S(=O)(=O)C[N+](=O)[O-]` [Example 14, N-[3,5-Dimethyl-4-[(nitromethyl)sulphonyl]phenyl]-2-(trifluoromethyl)benzenesulphonamide], the melting point was in the range of 171 to 173 °C. At aldose reductase, half-maximal inhibition (IC50) required 7 nM. The inhibition in vivo at 5 mg/kg in data set [1] is 70%.

`Cc1cc(NS(=O)(=O)c2cccc(Br)c2)cc(C)c1S(=O)(=O)C[N+](=O)[O-]` [Example 13, 3-Bromo-N-[3,5-dimethyl-4-[(nitromethyl)sulphonyl]-phenyl]benzenesulphonamide] had a melting point of 156 to 158 °C. In addition, the IC50 at aldose reductase came to 8 nM. Moreover, the inhibition in vivo at 5 mg/kg in data set [1] was 70%. For `Cc1cc(NS(=O)(=O)Cc2ccccc2)cc(C)c1S(=O)(=O)C[N+](=O)[O-]` [Example 26, N-[3,5-Dimethyl-4-[(nitromethyl)sulphonyl]phenyl]-phenylmethanesulphonamide], in that order: 124 to 126 °C, 6 nM and 104%.

`Cc1cc(NS(=O)(=O)c2ccccc2)cc(C)c1SC[N+](=O)[O-]` [Example 3, N-[3,5-Dimethyl-4-[(nitromethyl)thio]phenyl]benzenesulphonamide]: the melting point lay within 146 to 148 °C. With `Cc1cc(NS(=O)(=O)c2ccccc2Br)cc(C)c1S(=O)(=O)C[N+](=O)[O-]` [Example 17, 2-Bromo-N-[3,5-dimethyl-4-[(nitromethyl)sulphonyl]-phenyl]benzenesulphonamide], the melting point lay in the range of 140 to 142 °C.

The molecule `Cc1cc(NC(=O)CCCC(=O)Nc2cc(C)c(S(=O)(=O)C[N+](=O)[O-])c(C)c2)cc(C)c1S(=O)(=O)C[N+](=O)[O-]` returned a melting point of 207 to 210 °C. The same measure, in the same setting: the result for `Cc1cc(NC(=O)CCCCCCC(=O)Nc2cc(C)c(S(=O)(=O)C[N+](=O)[O-])c(C)c2)cc(C)c1S(=O)(=O)C[N+](=O)[O-]` reads 235 to 238 °C.

As to `Cc1cc(NS(=O)(=O)c2cccc(F)c2F)cc(C)c1S(=O)(=O)C[N+](=O)[O-]` [Example 29, 2,3-Difluoro-N-[3,5-dimethyl-4-[(nitromethyl)sulphonyl]phenyl]benzenesulphonamide], the melting point is 166 to 168 °C. Moreover, at aldose reductase, half-maximal inhibition (IC50) was put at 7 nM. Also, the inhibition in vivo at 5 mg/kg in data set [1] stood at 71%.

In the case of `O=C(CCCC(=O)Nc1ccc(S(=O)(=O)C[N+](=O)[O-])cc1)Nc1ccc(S(=O)(=O)C[N+](=O)[O-])cc1`, the melting point was in the range of 203 to 205 °C. Still for that read-out and setting: the result for `Cc1cc(NC(=O)Nc2cc(C)c(S(=O)(=O)C[N+](=O)[O-])c(C)c2)cc(C)c1S(=O)(=O)C[N+](=O)[O-]` reads 224 to 226 °C; that for `Cc1cc(NS(C)(=O)=O)cc(C)c1S(=O)(=O)C[N+](=O)[O-]` (as salt: acetate) [Example 40, N-[3,5-Dimethyl-4-[(nitromethyl)sulphonyl]phenyl]-methanesulphonamide], 138 to 140 °C; that for `Cc1cc(NS(=O)(=O)Cc2ccc(Br)cc2F)cc(C)c1S(=O)(=O)C[N+](=O)[O-]` [Example 52, 4-Bromo-N-[3,5-dimethyl-4-[(nitromethyl)sulphonyl]-phenyl]-(2-fluorophenyl)methanesulphonamide], 152 to 154 °C. The same measure, in the same setting: the result for `CC(=O)Nc1ccc(S(=O)(=O)Nc2cc(C)c(S(=O)(=O)C[N+](=O)[O-])c(C)c2)cc1` [Example 22, N-[4-[3,5-Dimethyl-4-[(nitromethyl)sulphonyl]phenylsulphamoyl]phenyl]acetamide] reads 209 to 210 °C; that for `Cc1cc(NS(=O)(=O)Cc2ccccc2[N+](=O)[O-])cc(C)c1S(=O)(=O)C[N+](=O)[O-]`, 189 to 190 °C; that for `Cc1cc(NC(=O)CC(=O)Nc2cc(C)c(S(=O)(=O)C[N+](=O)[O-])c(C)c2)cc(C)c1S(=O)(=O)C[N+](=O)[O-]`, 197 to 199 °C. Same read-out and setting: the result for `Cc1cc(NS(=O)(=O)c2ccccc2)cc(C)c1[S+]([O-])C[N+](=O)[O-]` (stereo not shown) [Example 4, N-[3,5-Dimethyl-4-[(nitromethyl)sulphinyl]phenyl]-benzenesulphonamide] reads > 50 °C (dec.).

Regarding `Cc1cc(NS(=O)(=O)c2cc(F)cc(F)c2)cc(C)c1S(=O)(=O)C[N+](=O)[O-]` [Example 30, 3,5-Difluoro-N-[3,5-dimethyl-4-[(nitromethyl)sulphonyl]phenyl]benzenesulphonamide], the melting point was in the range of 187 to 190 °C. The molecule further had a 50% inhibitory concentration (IC50) on aldose reductase of 8 nM. The inhibition in vivo at 5 mg/kg in data set [1] worked out at 87%. Turning to `Cc1ccc(S(=O)(=O)Nc2cc(C)c(S(=O)(=O)C[N+](=O)[O-])c(C)c2)cc1` [Example 7, N-[3,5-Dimethyl-4-[(nitromethyl)sulphonyl]phenyl]-4-methylbenzenesulphonamide], the melting point was 163 to 165 °C. Turning to `Cc1cc(NS(=O)(=O)Cc2ccccc2C(F)(F)F)cc(C)c1S(=O)(=O)C[N+](=O)[O-]` [Example 48, N-[3,5-Dimethyl-4-[(nitromethyl)sulphonyl]phenyl]-(2-trifluoromethylphenyl)methanesulphonamide], the melting point lay within 146 to 148 °C.

`Cc1ccccc1S(=O)(=O)Nc1cc(C)c(S(=O)(=O)C[N+](=O)[O-])c(C)c1` [Example 45, N-[3,5-Dimethyl-4-[(nitromethyl)sulphonyl]phenyl]-2-methylbenzenesulphonamide] returned a melting point of 118 to 120 °C.

As to `Cc1cc(NS(=O)(=O)c2cccc3ccccc23)cc(C)c1S(=O)(=O)C[N+](=O)[O-]` [Example 31, N-[3,5-Dimethyl-4-[(nitromethyl)sulphonyl]phenyl]-1-naphthalenesulphonamide], the melting point lay within 170 to 172 °C. In turn, `Cc1cc(NS(=O)(=O)c2cccs2)cc(C)c1S(=O)(=O)C[N+](=O)[O-]` [Example 32, N-[3,5-Dimethyl-4-[(nitromethyl)sulphonyl]phenyl]-2-thiophenesulphonamide] returned a melting point of 158 to 159 °C. As for `Cc1cc(NS(=O)(=O)c2ccc3oc4ccccc4c3c2)cc(C)c1S(=O)(=O)C[N+](=O)[O-]` [Example 38, N-[3,5-Dimethyl-4-[(nitromethyl)sulphonyl]phenyl]-2-dibenzofuransulphonamide], the melting point is 214 to 215 °C (dec.). Consider `Cc1cc(NS(=O)(=O)c2ccc(F)cc2F)cc(C)c1S(=O)(=O)C[N+](=O)[O-]` [Example 8, 2,4-Difluoro-N-[3,5-dimethyl-4-[(nitromethyl)sulphonyl]phenyl]benzenesulphonamide], for which the melting point was in the range of 154 to 156 °C.
